The text below walks through data of patent US6605619B1, “Nitroxides as protectors against oxidatives stress” (The United States of America as represented by the …, priority 1992, dated 2003).

Marks after values point to notes of the source that are not given here.

The test system of data set [1] is Chinese hamster V79 cells. In words: Protection of cells exposed to HX/XO, clonogenic survival. The data set is classed as cell-based. Conditions: 0.05 U/ml XO + 0.5 mM HX, 37° C.; 5 mM nitroxide; 100 U/ml catalase; SOD; 500 μM DF preincubated 2 h. Here is the method: Chinese hamster V79 cells were grown in F12 medium supplemented with 10% fetal calf serum, penicillin, and streptomycin. Survival was assessed in all studies by the clonogenic assay. The plating efficiency range between 80-90%. Stock cultures of exponentially growing cells were trypsinized, rinsed, and plated (5×10^5 cells/dish) into a number of 100 mm petri dishes and incubated 16 h at 37° C. prior to experimental protocols. Cells were exposed for 1 h at 37° C. to either 0.5 mM hypoxanthine (HX)+0.05 U/ml of xanthine oxidase (XO) for varying lengths of time, or to H2O2 at different concentrations. To assess possible modulation in cytotoxicity, catalase, 100 U/ml; SOD, 100 μg/ml; DF, 500 μM; and 5 mM of each of the nitroxides from Table 1 were added to parallel cultures. CHD was prepared in a stock solution in ethanol and diluted into medium such that the final concentration was 5 mM. […] TEMPOL is water soluble and was prepared directly in tissue culture medium. […] DF was added either 2 h prior to or during treatment while the other agents were present only during HX/XO or H2O2 treatment. Following treatment, cells were rinsed, trypsinized, counted, and plated for macroscopic colony formation. For each dose determination cells were plated in triplicate and the experiments were repeated a minimum of two times. Plates were incubated 7 days, after which colonies were fixed with methanol/acetic acid, stained with crystal violet, and counted. Colonies containing >50 cells were scored. Error bars represent S.D. of the mean and are shown when larger than the symbol.

Data set [2] can be described thus: Water/octanol partition of nitroxides, ratio determined by EPR. The data set is classed as physicochemical. The settings on record: Octanol:water. The source says: CHD, 2-spirocyclohexane doxyl(2-spirocyclohexane-5,5-dimethyl-3-oxazolidinoxyl) and OXANO, 2-ethyl-2,5,5-trimethyl-3-oxazolidine-1-oxyl as well as other nitroxides were synthesized as described by Keana et al (J. Am. Chem. Soc., 89, 3055-3056, 1967) For the general synthesis of the cyclic amines, the appropriate starting ketone was reacted with 2-amino-2-methyl-1-propanol in benzene in the presence of catalytic amounts of p-toluene sulfonic acid. As the cyclic structure formed, water was eliminated. The volume of water collected in a Dean Stark apparatus was monitored and used to gauge the reaction progress. The amines thus produced were purified through fractional distillation under reduced pressure, characterized by 220 MHz ^1H NMR, IR, UV, either EI or CI mass spectroscopy, and subsequently oxidized to the corresponding nitroxides using m-chloroperbenzoic acid. The nitroxides were purified by silica flash chromatography (Still et al, J. Org. Chem., 43, 2923-2925, 1978). Water/octanol ratios were determined by placing a quantity of nitroxide in water+octanol within a separatory funnel. The mixture was shaken thoroughly and allowed to separate for 15 min, whereupon aliquots were taken from both fractions and the ratio of nitroxide distribution was determined using electron paramagnetic resonance (EPR) spectroscopy, by comparing the intensities of signal obtained under N2.

A further data set deals with DNA-Fe(II). In words: Reaction of nitroxide with DNA-Fe(II), EPR spin-loss and OD353nm. The data set is classed as biochemical, Salmon. Conditions: hypoxic mixing, 0.1 mg/ml Salmon DNA, 50 mM MOPS pH 7.0, 22° C. On the procedure:
All solutions always contained 0.1 mg/ml Salmon DNA. The appearance of DNA-Fe(III) was spectrophotometrically monitored at 353 nm, whereas the spin-loss of CHD was monitored by following its EPR signal. To study the time-dependence of ΔOD353nm (∘), 1 mM CHD was mixed with 0.1 mM Fe(II). To follow the spin-loss of CHD (□), 1 mM Fe(II) was mixed with 0.1 mM CHD.
It was also questioned whether the aerobic and hypoxic protection by CHD to H2O2 exposure was a result of CHD directly accepting electrons from ferrous ions, thereby preventing generation of .OH. Because cellular iron is chelated, the possible reaction of nitroxide with chelated iron(II) was examined by repeating the experiment in the presence of DNA. To study the possibility of nitroxide-induced oxidation of transition metals, CHD was hypoxically mixed with iron(II) in the presence of 0.1 mg/ml Salmon DNA. Consequently, DNA-Fe(III) was formed and the nitroxide EPR signal disappeared. The reaction kinetics were investigated by maintaining either CHD or Fe(II) in excess while the absorbance due to DNA-Fe(III) and the nitroxide spin-loss were monitored respectively (FIG. 6). Both the decay of the EPR signal and the appearance of the OD353nm obeyed pseudo 1st order kinetics from which the 2nd order reaction rate constant was calculated as 44 M^−1s^−1 or 33 M^−1s^−1 using the data from EPR or optical absorption, respectively.

The test system of another data set is V79 cells. In words: Nitroxide intracellular localization by EPR with trioxalato-chromiate. The data set is classed as cell-based, Chinese hamster.
A short description of data set [3]: H2O2 accumulation and decay in tissue culture exposed to HX/XO (H2O2 selective electrode). The data set is classed as cell-based, Chinese hamster. The settings on record: presence of CHD. On the procedure:
Chinese hamster V79 cells were plated in full medium and incubated at 37° C. with 5 mM HX+0.04 U/ml XO, sampled at various time points, and assayed for H2O2 using a hydrogen peroxide selective electrode.
Hydrogen peroxide was assayed using a YSI Model 27 Industrial Analyzer (Yellow Springs Instruments) equipped with a selective electrode for H2O2. For analysis of cellular preparations, the cells, except during the brief time required for removal of aliquots for analysis, were kept in T25 culture flasks maintained at 37° C. in complete medium (pH 7.2). Aliquots of 25 μl were sampled from the reaction or cell preparation system at varying time points and injected into the analyzer. [H2O2] was determined after calibrating the instrument with known concentrations of H2O2. The concentrations of standard H2O2 solutions were calibrated using iodometric assay (Hochanadel, J. Phys. Chem., 56, 587-594, 1952).

The nature of data set [4]: SOD-inhibitable ferricytochrome c reduction assay, rate constants of reaction with O2 (SOD-like activity). Conditions: low ionic strength (10 mM HEPES), pH 7.0, 22° C. The data set is classed as biochemical. From the text:
As a further check, the reaction of representatives of both 5- and 6-membered cyclic nitroxides with O2 was studied. The SOD-inhibitable ferricytochrome c reduction assay (Fridovich, Handbook of Methods for Oxygen Radical Research, 213-215, 1985) was used to determine rate constants of reaction with O2. […] The reaction was started by adding 0.01 U/ml XO and the rate of ferricytochrome c reduction, in the absence (V) and in the presence (v) of various nitroxides, was spectrophotometrically followed at 550 nm. Both reference and sample cuvettes contained all the reagents, with the reference cuvette containing 100 units/ml SOD, thereby eliminating spurious reactions from interfering with the determination of rate constants. Data were analyzed by plotting V/v as a function of [nitroxide] and k1 was calculated, knowing kCytC+superoxide, according to:
(V/v)−1=k1x[nitroxide]/kCytC+superoxidex[Cyt−c^III].

Take `CC1(C)CN([O])C2(CCCCC2)O1` [CHD, 2-spirocyclohexane-5,5-dimethyl-3-oxazolidinoxyl]: the “cell survival / protection from HX/XO” value in data set [1] is “fully protected”. Besides, the Partition coefficient in data set [2] is 80. Besides, the “2nd order reaction rate constant with DNA-Fe(II), from EPR data” value in the data set on DNA-Fe(II) (EPR spin-loss) came out at 44 M⁻¹ s⁻¹. In addition, the “2nd order reaction rate constant with DNA-Fe(II), from optical absorption” value in the data set on DNA-Fe(II) (OD353nm) stood at 33 M⁻¹ s⁻¹. Moreover, the “intracellular location / freedom of motion” value in the data set with V79 cells is listed as “located primarily in a membranous compartment”. In addition, in data set [3], the “pattern of H2O2 generation by HX/XO” value is given as “did not significantly alter”. The “kR′RNO + O2” value in data set [4] was 3.5 × 10^3 M − 1^s − 1.
